Reference: patent US20240158446A1, “CYCLIC COMPOUND HAVING SELECTIVE INHIBITORY ACTION ON KRAS OVER HRAS AND NRAS” (CHUGAI SEIYAKU KABUSHIKI KAISHA, priority 2021, published 2024)
pIC50, pKd: −log10 of the molar value. Like-named read-outs stand apart in the source and are kept apart here. Where a SMILES comes first, the peptide text is derived from it. Bridges are numbered along the chain shown (N, C = ends). [ ]: non-standard residue; d: D form. The star is where a group is joined. hPhe(3-Cl-4-CF3) = N[C@@H](CCc1ccc(C(F)(F)F)c(Cl)c1)C(=O)O; NPrPhe(4-CF3) = CCCN[C@@H](Cc1ccc(C(F)(F)F)cc1)C(=O)O; NPrPhe(4-Me) = CCCN[C@@H](Cc1ccc(C)cc1)C(=O)O; NMeGly(cPent) = CN[C@H](C(=O)O)C1CCCC1; NMeD = CN[C@@H](CC(=O)O)C(=O)O; NMeL = CN[C@@H](CC(C)C)C(=O)O; Morpholide = C1CN(*)CCO1; Ac5c = NC1(C(=O)O)CCCC1; Aze = O=C(O)[C@@H]1CCN1; NEtG = CCNCC(=O)O; Sar = CNCC(=O)O

How the values were obtained:
[1] = target: GDP-bound HRAS wild-type protein (Homo sapiens, UniProt P01112); experiment: Binding to HRAS by surface plasmon resonance (SPR), Single Cycle Kinetics; settings: for HRAS/KRAS (ratio of KD value with respect to GDP-bound HRAS wild-type protein to KD value with respect to KRAS): SPR KD ratio HRAS/KRAS, class symbols
[2] = tested on: human lung cancer strain NCI-H441;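 further: cell proliferation inhibition after four days measured by CellTiter-Glo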
[3] = target: GDP-bound NRAS wild-type protein (Homo sapiens, UniProt P01111); experiment: Binding to NRAS by surface plasmon resonance (SPR), Single Cycle Kinetics; settings: for NRAS/KRAS (ratio of KD value with respect to GDP-bound NRAS wild-type protein to KD value with respect to KRAS): SPR KD ratio NRAS/KRAS, class symbols
[4] = target: GDP-bound KRAS wild-type protein (Homo sapiens, UniProt P01116); experiment: Binding to KRAS by surface plasmon resonance (SPR), Single Cycle Kinetics
[5] = SPR Single Cycle Kinetics, GDP-bound KRAS wild-type protein, 1:1 binding model, read-out: KRAS KD
[6] = SPR, GDP-bound HRAS wild-type protein vs GDP-bound KRAS wild-type protein
[7] = SPR, GDP-bound NRAS wild-type protein vs GDP-bound KRAS wild-type protein
[8] = SPR, Single Cycle Kinetics, GDP-bound KRAS wild-type protein, read-out: KRAS KD
[9] = SPR, GDP-bound HRAS wild-type protein vs GDP-bound KRAS wild-type protein, KD ratio class
[10] = SPR, GDP-bound NRAS wild-type protein vs GDP-bound KRAS wild-type protein, KD ratio class
[11] = SPR, Single Cycle Kinetics, 1:1 binding model, GDP-bound KRAS wild-type protein, read-out: KRAS KD
[12] = read-out: NCI-H441 cell proliferation inhibitory activity, 50% proliferation inhibitory concentration (IC50 value), NCI-H441, four days, CellTiter-Glo
[13] = SPR, Single Cycle Kinetics, 1:1 binding model, read-out: KD value with respect to GDP-bound KRAS wild-type protein

Chain of GDP-bound KRAS wild-type protein (P01116 whole entry): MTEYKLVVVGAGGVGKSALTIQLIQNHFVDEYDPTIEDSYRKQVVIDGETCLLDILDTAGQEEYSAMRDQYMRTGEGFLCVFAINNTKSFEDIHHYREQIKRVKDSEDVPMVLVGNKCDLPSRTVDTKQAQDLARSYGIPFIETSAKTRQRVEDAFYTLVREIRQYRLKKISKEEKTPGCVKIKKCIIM
Chain of GDP-bound NRAS wild-type protein (P01111 whole entry): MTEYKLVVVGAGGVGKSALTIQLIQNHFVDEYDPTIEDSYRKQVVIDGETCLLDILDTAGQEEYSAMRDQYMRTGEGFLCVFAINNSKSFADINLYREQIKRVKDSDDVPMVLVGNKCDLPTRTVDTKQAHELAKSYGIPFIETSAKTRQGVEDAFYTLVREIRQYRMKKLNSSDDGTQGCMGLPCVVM
Chain of GDP-bound HRAS wild-type protein (P01112 whole entry): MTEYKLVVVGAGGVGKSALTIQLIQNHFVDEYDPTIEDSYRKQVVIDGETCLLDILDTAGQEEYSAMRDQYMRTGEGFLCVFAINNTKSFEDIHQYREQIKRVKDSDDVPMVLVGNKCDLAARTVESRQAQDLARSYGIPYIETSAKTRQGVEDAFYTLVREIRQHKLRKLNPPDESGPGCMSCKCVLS

SMILES	pIC50 [2]	pKd [4, 5]	pKd [4, 8]	HRAS/KRAS (ratio of KD value with respect to GDP-bound HRAS wild-type protein to KD value with respect to KRAS) [1]	further results
CCCN1C(=O)CN(C)C(=O)CN(CC)C(=O)[C@H]([C@@H](C)CC)NC(=O)[C@H](CC(C)C)N(C)C(=O)C[C@@H](C(=O)N(C)C)N(C)C(=O)[C@H](C2CCCC2)N(C)C(=O)C2(CCCC2)NC(=O)[C@@H]2CCCN2C(=O)[C@H](CCc2ccc(C(F)(F)F)c(Cl)c2)NC(=O)CN(C)C(=O)[C@@H]1Cc1ccc(C(F)(F)F)cc1 [PP0423] ([NMeL]I[NEtG][Sar][NPrPhe(4-CF3)][Sar][hPhe(3-Cl-4-CF3)]P[Ac5c][NMeGly(cPent)][NMeD]-NMe2; lactam N-11)	8.15	9.74	–	–	HRAS/KRAS (ratio of KD value with respect to HRAS to KD value with respect to KRAS) [1, 6]: C (A compound having a KD ratio of 0.1 or more and less than 3 is denoted as C); NRAS/KRAS (ratio of KD value with respect to NRAS to KD value with respect to KRAS) [3, 7]: B (a compound having 3 or more and less than 10 is denoted as B)
CC[C@H](C)[C@@H]1NC(=O)[C@H](CC)N(C)C(=O)C[C@@H](C(=O)N(C)C)N(C)C(=O)[C@H](C2CCCC2)N(C)C(=O)C2(CCCC2)NC(=O)[C@@H]2CCCN2C(=O)[C@H](CCc2cc(F)c(C(F)(F)F)c(F)c2)NC(=O)CN(C)C(=O)[C@H](Cc2ccc(C(F)(F)F)cc2)N2C[C@H](C)CC[C@@H](C2=O)N(C)C(=O)CN(C)C1=O [PP1382]	7.80	–	–	–	HRAS/KRAS (ratio of KD value for HRAS to KD value for KRAS) [1, 9]: B (a compound having 3 or more and less than 10 is denoted as B); NRAS/KRAS (ratio of KD value for NRAS to KD value for KRAS) [3, 10]: B (a compound having 3 or more and less than 10 is denoted as B); pKd [4, 11]: 10.17
CC[C@H](C)[C@@H]1NC(=O)[C@H](COC)N(C)C(=O)C[C@@H](C(=O)N2CCCCC2)N(C)C(=O)[C@H](C2CCCC2)N(C)C(=O)C2(CC(C)(C)C2)NC(=O)[C@@H]2C[C@@H](OC(C)C)CN2C(=O)[C@H](CCc2cc(F)c(C(F)(F)F)c(F)c2)NC(=O)CN(C)C(=O)[C@H](Cc2ccc(C(F)(F)F)cc2)N2CC/C=C\C[C@@H](C2=O)N(C)C(=O)CN(C)C1=O [PP2663]	7.95	9.62	–	A (a compound having 10 or more and less than 20 is denoted as A)	–
CCCN1C(=O)[C@@H]2CCN2C(=O)[C@H](C)NC(=O)[C@H]([C@@H](C)CC)NC(=O)[C@H](CC(C)C)N(C)C(=O)C[C@@H](C(=O)N2CCOCC2)N(C)C(=O)[C@H](C2CCCC2)N(C)C(=O)C2(CCCC2)NC(=O)[C@@H]2CCCN2C(=O)[C@H](CCc2ccc(C(F)(F)F)c(Cl)c2)NC(=O)CN(C)C(=O)[C@@H]1Cc1ccc(C)cc1 [PP0071] ([NMeL]IA[Aze][NPrPhe(4-Me)][Sar][hPhe(3-Cl-4-CF3)]P[Ac5c][NMeGly(cPent)][NMeD]-Morpholide; lactam N-11)	8.42	9.82	–	–	–
CCC[C@H]1C(=O)N[C@@H]([C@@H](C)CC)C(=O)N(C)CC(=O)N(C)[C@H]2C/C=C\CCN(C2=O)[C@@H](Cc2ccc(C(F)(F)F)cc2)C(=O)N(C)CC(=O)N[C@@H](CCc2ccc(C(F)(F)F)c(OC)c2)C(=O)N2C[C@H](OCC)C[C@H]2C(=O)N(C)C2(CCC2)C(=O)N(C)[C@@H](C2CCCC2)C(=O)N(C)[C@H](C(=O)N2CCCCC2)CC(=O)N1C [PP3103, (2S,8S,12R,14S,20S,23S,27S,30S,36S,38Z)-20-cyclopentyl-12-ethoxy-8-[2-[3-methoxy-4-(trifluoromethyl)phenyl]ethyl]-4,16,19,22,26,32,35-heptamethyl-30-[(1S)-1-methylpropyl]-23-(piperidine-1-carbonyl)-27-propyl-2-[[4-(trifluoromethyl)phenyl]methyl]spiro[1,4,7,10,16,19,22,26,29,32,35-undecazatricyclo[34.5.1.0^10,14]dotetracont-38-ene-17,1′-cyclobutane]-3,6,9,15,18,21,25,28,31,34,42-undecone]	–	–	9.68	–	HRAS/KRAS (ratio of KD value for HRAS to KD value for KRAS) [1, 6]: A (a compound having 10 or more and less than 20 is denoted as A); ratio of the KD value with respect to GDP-bound HRAS wild-type protein to the KD value with respect to KRAS ([1]; SPR, KD(HRAS)/KD(KRAS)): A (a compound having 10 or more and less than 20 is denoted as A); pIC50 [2, 12]: 7.67; pKd [4, 13]: 9.68

The next lines start with results.

pIC50 [2]	pKd [4, 5]	pKd [4, 8]	SMILES	HRAS/KRAS (ratio of KD value with respect to GDP-bound HRAS wild-type protein to KD value with respect to KRAS) [1]	further results
7.24	9.30	–	CCC(CC)[C@H]1C(=O)N(C)[C@H](C(=O)N(C)C)CC(=O)N(C)[C@@H](COC)C(=O)N[C@@H]([C@@H](C)CC)C(=O)N(C2CC2)CC(=O)N(C)[C@H]2C/C=C\CCN(C2=O)[C@@H](Cc2ccc(C(F)F)cc2)C(=O)N(C)CC(=O)N[C@@H](CCc2cc(F)c(C(F)(F)F)c(F)c2)C(=O)N2C[C@H](OC3CCC3)C[C@H]2C(=O)NC2(CC(C)(C)C2)C(=O)N1C [PP2631]	A (a compound having 10 or more and less than 20 is denoted as A)	NRAS/KRAS (ratio of KD value with respect to GDP-bound NRAS wild-type protein to KD value with respect to KRAS) [3]: AA (a compound having 20 or more is denoted as AA)
7.09	–	8.89	CCOC[C@H]1C(=O)N[C@@H]([C@@H](C)CC)C(=O)N(C)CC(=O)N(C)[C@H]2C/C=C\CCN(C2=O)[C@@H](CC2CCC(F)(F)CC2)C(=O)N(C)CC(=O)N[C@@H](CCc2ccc(C(F)(F)F)c(OC)c2)C(=O)N2C[C@@H](C)C[C@H]2C(=O)NC2(CC(C)(C)C2)C(=O)N(C)[C@@H](C(CC)CC)C(=O)N(C)[C@H](C(=O)N(C)C)CC(=O)N1C [PP2458]	–	HRAS/KRAS (ratio of KD value for HRAS to KD value for KRAS) [1, 6]: A (a compound having 10 or more and less than 20 is denoted as A); NRAS/KRAS (ratio of KD value for NRAS to KD value for KRAS) [3, 7]: A (a compound having 10 or more and less than 20 is denoted as A)
6.97	8.64	–	CCO[C@@H]1C[C@H]2C(=O)NC3(CC(C)(C)C3)C(=O)N(C)[C@@H](C3CCCC3)C(=O)N(C)[C@H](C(=O)N(C)C)CC(=O)N(C)[C@@H](COC)C(=O)N[C@@H]([C@@H](C)CC)C(=O)N(C3CC3)CC(=O)N(C)[C@H]3C/C=C\CCN(C3=O)[C@@H](CC3CCCCC3)C(=O)N(C)CC(=O)N[C@@H](CCc3ccc(Cl)c(Cl)c3)C(=O)N2C1 [PP2563]	A (a compound having 10 or more and less than 20 is denoted as A)	NRAS/KRAS (ratio of KD value with respect to GDP-bound NRAS wild-type protein to KD value with respect to KRAS) [3]: A (a compound having 10 or more and less than 20 is denoted as A)
6.66	–	–	CCO[C@@H]1C[C@H]2C(=O)NC3(CCCC3)C(=O)N(C)[C@@H](C(CC)CC)C(=O)N(C)[C@H](C(=O)N3CCCC3)CC(=O)N(C)[C@@H](C)C(=O)N[C@@H]([C@@H](C)CC)C(=O)N(C)CC(=O)N(C)[C@H]3C/C=C\CCN(C3=O)[C@@H](CC3CCC(F)(F)CC3)C(=O)N(C)CC(=O)N[C@@H](CCc3cc(F)c(C(F)(F)F)c(F)c3)C(=O)N2C1 [PP1437]	–	HRAS/KRAS (ratio of KD value for HRAS to KD value for KRAS) [1, 9]: A (a compound having 10 or more and less than 20 is denoted as A); NRAS/KRAS (ratio of KD value for NRAS to KD value for KRAS) [3, 10]: A (a compound having 10 or more and less than 20 is denoted as A); pKd [4, 11]: 9.21
6.75	8.38	–	CCC[C@H]1C(=O)N[C@@H](CC(C)C)C(=O)N(C2CC2)CC(=O)N(C)[C@H]2C/C=C\CCN(C2=O)[C@@H](Cc2ccc(C)cc2)C(=O)N(C)CC(=O)N[C@@H](CCc2ccc(C(F)(F)F)c(Cl)c2)C(=O)N2C[C@H](OCC)C[C@H]2C(=O)NC2(CCC2)C(=O)N(C)[C@@H](C2CCCC2)C(=O)N(C)[C@H](C(=O)N(C)C)CC(=O)N1C [PP2543]	B (a compound having 3 or more and less than 10 is denoted as B)	–
6.25	–	8.03	CCC(CC)[C@H]1C(=O)N(C)[C@H](C(=O)N(C)C)CC(=O)N(C)[C@@H](COC)C(=O)N[C@@H]([C@@H](C)CC)C(=O)N(C2CC2)CC(=O)N(C)[C@H]2C/C=C\CCN(C2=O)[C@@H](CC2CCCCC2)C(=O)N(C)CC(=O)N[C@@H](CCc2ccc(Cl)c(Cl)c2)C(=O)N2C[C@H](OC(C)C)C[C@H]2C(=O)NC2(CC(C)(C)C2)C(=O)N1C [PP2517]	–	HRAS/KRAS (ratio of KD value for HRAS to KD value for KRAS) [1, 6]: A (a compound having 10 or more and less than 20 is denoted as A)
–	–	5.52	CC[C@H](C)[C@@H]1NC(=O)[C@H](CC(C)C)N(C)C(=O)CSC[C@H](C(=O)N(C)C)N(C)C(=O)[C@H](C2CCCC2)N(C)C(=O)C2(CCCC2)NC(=O)[C@@H]2CCCN2C(=O)[C@H](CCc2cc(F)c(C(F)(F)F)c(F)c2)NC(=O)CN(C)C(=O)[C@H](Cc2ccc(C(F)(F)F)cc2)N2CC/C=C\C[C@@H](C2=O)N(C)C(=O)CN(C)C1=O [PP3109]	–	pIC50 [2, 12]: 5.47; pKd [4, 13]: 5.52
